We go through ten molecules from DBAASP.

Converted amounts (≈) assume the structure as drawn.

Some test systems named below: Proteus vulgaris; Candida albicans; Staphylococcus aureus MR; Bacillus cereus AS1.126; Escherichia coli AS1.349.
Test in all cases: ≥ marks a high value that may be exact or a test limit, other limits are often not marked, values filed in µg/mL are converted to µM
For experiment [1], the system named is Candida albicans ATCC 24433.
For experiment [2], the system named is Candida parapsilosis ATCC 22019.
Experiment [3] concerns Cronobacter sakazakii DPC 6440.
Experiment [4] concerns Listeria monocytogenes LO28.
Experiment [5] relates to Bacillus megaterium KCTC 1096.
Experiment [6] relates to Bacillus subtilis KCTC 1918.
Experiment [7] deals with Escherichia coli KCTC 1682.
The subject of experiment [8] is Pseudomonas aeruginosa KCTC 1637.
The test system of experiment [9] is Staphylococcus aureus KCTC 1621.
Experiment [10] relates to Staphylococcus aureus ATCC 25923.
Experiment [11] has as its system Enterococcus faecalis CGMCC 1.595.
Experiment [12] relates to Enterococcus faecium CGMCC 1.2334.
In experiment [13] the test system is Lactococcus lactis AS1.1690.
In experiment [14] the test system is Pseudomonas aeruginosa CGMCC 1.860.
Experiment [15] has as its system Staphylococcus aureus AS1.72.
Experiment [16] deals with Clavibacter michiganensis subsp. michiganensis DSM 46294.
Experiment [17] relates to Pectobacterium carotovorum subsp. carotovorum DSM 30168.
The test system of experiment [18] is Pseudomonas corrugata DSM 7228.
The subject of experiment [19] is Pseudomonas syringae pv. syringae DSM 10604.
Experiment [20] deals with Pseudomonas syringae pv. tomato DC3000.
Experiment [21] has as its system Xanthomonas vesicatoria DSM 50861.
Experiment [22] concerns Mycobacterium tuberculosis H37Rv.
Experiment [23] deals with Escherichia coli ATCC 25922.
For experiment [24], the system named is Staphylococcus epidermidis ATCC 12228.

For `CC[C@H](C)[C@H](NC(=O)[C@H](CC(C)C)NC(=O)[C@H](CCC(=O)O)NC(=O)[C@H](CO)NC(=O)[C@H](CCCN=C(N)N)NC(=O)[C@@H](N)CO)C(=O)N[C@H](C(=O)N[C@@H](Cc1cnc[nH]1)C(=O)N[C@@H](CCC(N)=O)C(=O)N[C@@H](CCCN=C(N)N)C(=O)N[C@@H](CC(C)C)C(=O)N[C@@H](Cc1ccccc1)C(N)=O)C(C)C` [SRSELIVHQRLF], the minimal inhibitory concentration (MIC) in [1] and in [2] was no less than 269 µM throughout.

As for `CC[C@H](C)[C@H](NC(=O)[C@@H](NC(=O)[C@H](CCCCN)NC(=O)[C@@H](NC(=O)[C@H](CCCCN)NC(=O)[C@@H]1CCCN1C(=O)[C@H](CCC(N)=O)NC(=O)[C@@H](NC(=O)[C@@H](N)Cc1c[nH]c2ccccc12)[C@@H](C)CC)[C@@H](C)O)C(C)C)C(=O)N[C@@H](C)C(=O)N[C@@H](Cc1ccc(O)cc1)C(=O)N[C@H](C(=O)N[C@@H](CCCN=C(N)N)C(=O)N[C@@H](Cc1ccc(O)cc1)C(=O)N[C@@H](CC(C)C)C(=O)O)C(C)C` [WIQPKTKVIAYVRYL], the minimum inhibitory concentration (MIC) (commonly the lowest concentration found to suppress growth) in experiment [3] is no less than 39.1 µM; in experiment [4] it was 2.44 µM (≈ 4.58 µg/mL).

For the molecule `CC[C@H](C)[C@H](NC(=O)[C@H](CCCCN)NC(=O)[C@H](CCCCN)NC(=O)[C@H](Cc1ccccc1)NC(=O)[C@@H](N)Cc1c[nH]c2ccccc12)C(=O)N1CCC[C@H]1C(=O)N[C@@H](CCCCN)C(=O)N[C@@H](Cc1ccccc1)C(=O)N[C@@H](CC(C)C)C(=O)N[C@@H](Cc1cnc[nH]1)C(=O)N[C@@H](CC(C)C)C(=O)N[C@@H](CC(C)C)C(=O)N[C@@H](CCCCN)C(=O)N[C@@H](CCCCN)C(=O)N[C@@H](Cc1ccccc1)C(N)=O` [WFKKIPKFLHLLKKF], the MIC amounted to 0.78 µM (≈ 1.54 µg/mL) in experiment [5]; 0.78 µM (≈ 1.54 µg/mL) in experiment [6]; 3.12 µM (≈ 6.16 µg/mL) in experiment [7]; 12.5 µM (≈ 24.7 µg/mL) with Proteus vulgaris; 1.56 µM (≈ 3.08 µg/mL) in experiment [8]; 3.12 µM (≈ 6.16 µg/mL) in experiment [9].

In the case of `CC[C@H](C)[C@H](NC(=O)[C@H](C)N)C(=O)N[C@@H](CCC(N)=O)C(=O)N1CCC[C@H]1C(=O)N[C@@H](CCCCN)C(=O)N[C@H](C(=O)N[C@@H](CCCCN)C(=O)N[C@H](C(=O)N[C@H](C(=O)N1CCC[C@H]1C(=O)N[C@@H](Cc1ccc(O)cc1)C(=O)N[C@H](C(=O)N[C@@H](CCCN=C(N)N)C(=O)N[C@@H](Cc1ccc(O)cc1)C(=O)N[C@@H](CC(C)C)C(=O)O)C(C)C)[C@@H](C)CC)C(C)C)[C@@H](C)O` [AIQPKTKVIPYVRYL], the minimal inhibitory concentration (MIC) in experiment [3] and in experiment [4] was no less than 78.1 µM in each case.

As for `CC[C@H](C)[C@@H]1NC(=O)[C@H](CCC(N)=O)NC(=O)[C@H](CCC(=O)O)NC(=O)[C@H](CCC(=O)O)NC(=O)[C@H](CCCCN)NC(=O)CNC(=O)[C@H](CC(C)C)NC(=O)[C@@H]2CSSC[C@@H](C(=O)N[C@@H](CCCN=C(N)N)C(=O)N[C@@H](CCCCN)C(=O)N[C@@H](CCCCN)C(=O)N[C@@H](CCCCN)C(=O)O)NC(=O)[C@@H]3CSSC[C@H](NC(=O)[C@H](Cc4ccccc4)NC(=O)[C@H](Cc4ccccc4)NC(=O)[C@H](CCCCN)NC(=O)[C@H](CCCN=C(N)N)NC(=O)[C@H](CC(C)C)NC(=O)[C@@H](NC(=O)[C@H](CCCCN)NC(=O)[C@@H]4CCCN4C(=O)[C@H](CC(C)C)NC(=O)[C@@H](N)Cc4ccccc4)[C@@H](C)O)C(=O)N[C@@H](CCCN=C(N)N)C(=O)N[C@@H]([C@@H](C)CC)C(=O)N[C@@H](CCCN=C(N)N)C(=O)NCC(=O)NCC(=O)N[C@@H](CCCN=C(N)N)C(=O)N[C@@H](CSSC[C@H](NC(=O)[C@H](CCCN=C(N)N)NC(=O)CNC1=O)C(=O)N[C@@H](CO)C(=O)N[C@@H](CC(N)=O)C(=O)N[C@@H](CO)C(=O)NCC(=O)N[C@@H](CCCN=C(N)N)C(=O)N[C@@H](CCCCN)C(=O)N3)C(=O)N[C@@H](C)C(=O)N[C@@H](C(C)C)C(=O)N[C@@H](CC(C)C)C(=O)N[C@@H](CC(N)=O)C(=O)N2` [FLPKTLRKFFCRIRGGRCAVLNCLGKEEQIGRCSNSGRKCCRKKK], the minimum inhibitory concentration (MIC) in experiment [1] is 2.41 µM (≈ 12.5 µg/mL); against Candida albicans it was 2.41 µM (≈ 12.5 µg/mL); in experiment [10], 0.385 µM (≈ 2 µg/mL); with Staphylococcus aureus MR, 4.82 µM (≈ 25 µg/mL).

Consider `CC(C)[C@H](NC(=O)[C@H](CCCCN)NC(=O)[C@@H](N)CO)C(=O)N[C@@H](Cc1c[nH]c2ccccc12)C(=O)N[C@@H](CCCN=C(N)N)C(=O)N[C@@H](Cc1cnc[nH]1)C(=O)N[C@@H](Cc1c[nH]c2ccccc12)C(=O)O` [SKVWRHW], for which the MIC (in the experiment with Bacillus cereus AS1.126; in experiment [11]; in experiment [12]; against Escherichia coli AS1.349; in [13]; in experiment [14]) was no less than 100 µM each time. The molecule further returned a minimum inhibitory concentration (MIC) in experiment [15] of no less than 100 µM.

On to `CC(C)C[C@H](NC(=O)[C@H](CCCN=C(N)N)NC(=O)[C@H](CCCCN)NC(=O)[C@H](Cc1ccccc1)NC(=O)[C@H](Cc1ccccc1)NC(=O)[C@H](CCCCN)NC(=O)[C@H](Cc1ccccc1)NC(=O)[C@H](CCCCN)NC(=O)[C@H](CCCCN)NC(=O)[C@H](CCCCN)NC(=O)[C@@H](N)CCCN=C(N)N)C(=O)N[C@@H](Cc1ccccc1)C(N)=O` [RKKKFKFFKRLF], for which the minimal inhibitory concentration (MIC) in experiment [16] was 0.299 µM (≈ 0.5 µg/mL); in [17], 5.98 µM (≈ 9.99 µg/mL); in experiment [18], 0.149 µM (≈ 0.25 µg/mL); in [19], 0.0598 µM (≈ 0.1 µg/mL); in [20], 5.98 µM (≈ 9.99 µg/mL); in experiment [21], 0.299 µM (≈ 0.5 µg/mL).

In [22], `CC[C@H](C)[C@H](NC(=O)[C@H](Cc1c[nH]c2ccccc12)NC(=O)[C@H](CCCN=C(N)N)NC(=O)[C@H](CCCCN)NC(=O)[C@H](C)NC(=O)[C@H](CC(C)C)NC(=O)[C@H](CCCN=C(N)N)NC(=O)[C@H](CC(=O)O)NC(=O)[C@@H](NC(=O)[C@H](CC(N)=O)NC(=O)[C@H](CCC(=O)O)NC(=O)[C@H](CCC(=O)O)NC(=O)[C@H](CO)NC(=O)[C@@H](NC(=O)[C@H](CC(N)=O)NC(=O)[C@H](CCCN=C(N)N)NC(=O)[C@H](C)N)C(C)C)C(C)C)C(=O)N[C@@H](CCCCN)C(=O)O` [ARNVSEENVDRLAKRWIK] displayed a minimum inhibitory concentration (MIC) of no less than 68.7 µM.

Take `CC[C@H](C)[C@H](NC(=O)CNC(=O)[C@@H](NC(=O)[C@H](C)NC(=O)[C@@H](NC(=O)[C@H](CCCCN)NC(=O)[C@@H]1CCCN1C(=O)[C@@H](NC(=O)[C@H](CCSC)NC(=O)[C@H](CO)NC(=O)[C@H](Cc1ccccc1)NC(=O)[C@@H](N)Cc1ccccc1)[C@@H](C)CC)[C@@H](C)CC)[C@@H](C)O)C(=O)N[C@@H](C)C(=O)N[C@@H](CO)C(=O)N[C@@H](CC(C)C)C(=O)N[C@H](C(=O)N[C@@H](CCCCN)C(=O)N[C@@H](CC(N)=O)C(=O)N[C@@H](CC(C)C)C(=O)O)C(C)C` [FFSMIPKIATGIASLVKNL]: the minimal inhibitory concentration (MIC) in [1] was no less than 100 µM; in [23] it was greater than 100 µM; in [24], greater than 100 µM.

Take `CC[C@H](C)[C@H](NC(=O)[C@@H](N)Cc1c[nH]c2ccccc12)C(=O)N[C@@H](CCC(N)=O)C(=O)N1CCC[C@H]1C(=O)N[C@@H](CCCCN)C(=O)N[C@H](C(=O)N[C@@H](CCCCN)C(=O)N[C@H](C(=O)N[C@H](C(=O)N1CCC[C@H]1C(=O)N[C@@H](Cc1ccc(O)cc1)C(=O)N[C@H](C(=O)N[C@@H](C)C(=O)N[C@@H](Cc1ccc(O)cc1)C(=O)N[C@@H](CC(C)C)C(=O)O)C(C)C)[C@@H](C)CC)C(C)C)[C@@H](C)O` [WIQPKTKVIPYVAYL]: the values for the minimum inhibitory concentration (MIC) in experiment [3] and in [4] were no less than 625 µM and no less than 156 µM, respectively.
